Laboratory results taken from patent US9242970B2 (ACTELION PHARMACEUTICALS LTD., priority 2010, dated 2016).
Where two headings read alike, the source gives them in different places.

Legend:
human orexin-1 receptor = human orexin-1 receptor (Homo sapiens (Human), UniProt O43613); assay: In vitro assay: intracellular calcium measurements (FLIPR), antagonistic activity; format: cell-based; conditions: CHO cells, 3 nM orexin-A, marked values are geometric means of n = 2-6, read-out: IC50 OX1
human orexin-2 receptor = human orexin-2 receptor (Homo sapiens (Human), UniProt O43614); assay: as above; format: cell-based; conditions: CHO cells, 3 nM orexin-A, marked values are geometric means of n = 2-6, read-out: IC50 OX2
Chain of human orexin-2 receptor (O43614 whole entry): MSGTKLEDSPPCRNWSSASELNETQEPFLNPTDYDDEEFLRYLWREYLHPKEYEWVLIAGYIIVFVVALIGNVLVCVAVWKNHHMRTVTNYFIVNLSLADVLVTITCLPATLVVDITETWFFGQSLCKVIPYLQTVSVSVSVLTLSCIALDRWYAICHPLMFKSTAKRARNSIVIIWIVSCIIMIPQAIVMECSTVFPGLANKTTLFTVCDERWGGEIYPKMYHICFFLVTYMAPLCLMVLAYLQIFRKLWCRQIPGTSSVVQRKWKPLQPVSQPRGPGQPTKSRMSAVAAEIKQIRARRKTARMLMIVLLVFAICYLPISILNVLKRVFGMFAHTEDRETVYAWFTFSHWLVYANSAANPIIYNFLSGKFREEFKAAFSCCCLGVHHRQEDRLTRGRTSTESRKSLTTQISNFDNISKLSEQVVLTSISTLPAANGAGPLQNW

[1] = compound incubation time of 10 min

Chain of human orexin-1 receptor (O43613 whole entry): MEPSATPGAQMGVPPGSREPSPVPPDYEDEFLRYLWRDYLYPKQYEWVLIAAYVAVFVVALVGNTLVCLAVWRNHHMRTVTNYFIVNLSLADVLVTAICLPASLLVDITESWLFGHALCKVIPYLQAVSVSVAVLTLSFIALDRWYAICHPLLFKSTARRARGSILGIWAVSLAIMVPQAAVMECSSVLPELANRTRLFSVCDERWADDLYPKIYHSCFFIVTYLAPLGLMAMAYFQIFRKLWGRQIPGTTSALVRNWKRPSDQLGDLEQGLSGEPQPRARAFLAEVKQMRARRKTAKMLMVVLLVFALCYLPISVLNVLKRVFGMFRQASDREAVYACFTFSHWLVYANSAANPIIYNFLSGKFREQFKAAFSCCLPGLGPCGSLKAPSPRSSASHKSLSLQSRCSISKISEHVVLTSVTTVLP

Compound | IC50 (human orexin-1 receptor; compound incubation 120 min) [nM] | IC50 (human orexin-2 receptor; compound incubation 120 min) [nM] | IC50 (human orexin-1 receptor; [1]) [nM] | IC50 (human orexin-2 receptor; [1]) [nM]
CCOc1cccc(F)c1C1CC(C)C(=O)N1Cc1ccnc(-c2nc(C)cs2)c1 (stereo not drawn) [Example 386, 5-(2-ethoxy-6-fluorophenyl)-3-methyl-1-((2-(4-methylthiazol-2-yl)pyridin-4-yl)methyl)pyrrolidin-2-one] | 39 | 2 |  | 
COc1cccc(OCC(O)CO)c1C1CCCC(=O)N1Cc1ccc(OC(F)(F)F)cc1 (stereo not drawn) [Example 214, 6-(2-(2,3-dihydroxypropoxy)-6-methoxyphenyl)-1-(4-(trifluoromethoxy)benzyl)piperidin-2-one] |  |  | 3540 | 735
COc1cccc(OC)c1C1CCCC(=O)N1Cc1cccc(-n2cncn2)c1 (stereo not drawn) [Example 23, 1-(3-(1H-1,2,4-triazol-1-yl)benzyl)-6-(2,6-dimethoxyphenyl)piperidin-2-one] | 312 | 471 |  | 
COc1cccc(OC)c1C1CC(C)C(=O)N1Cc1cccc(OC(C)C)c1 (stereo not drawn) [Example 423, 5-(2,6-dimethoxyphenyl)-1-(3-isopropoxybenzyl)-3-methylpyrrolidin-2-one] | 101 | 93 |  | 
COc1ccnc(OC)c1C1CCCC(=O)N1Cc1cccc(-c2csc(C)n2)c1 (stereo not drawn) [Example 54, 6-(2,4-dimethoxypyridin-3-yl)-1-(3-(2-methylthiazol-4-yl)benzyl)piperidin-2-one] | 15 | 13 |  | 
COc1cccc(OC)c1C1CCC(=O)N1Cc1cnc2ccccc2c1 (stereo not drawn) [Example 109, 5-(2,6-dimethoxyphenyl)-1-(quinolin-3-ylmethyl)pyrrolidin-2-one] |  |  | 227 | 44
COc1cccc(OC)c1C1CC(C)C(=O)N1Cc1ccc(OC(F)F)nc1 (stereo not drawn) [Example 199, 1-((6-(difluoromethoxy)pyridin-3-yl)methyl)-5-(2,6-dimethoxyphenyl)-3-methylpyrrolidin-2-one] |  |  | 351 | 621
COc1cccc(F)c1C1CC(C)C(=O)N1Cc1cccc(-c2nc(Cl)cs2)c1 (stereo not drawn) [Example 365, 1-(3-(4-chlorothiazol-2-yl)benzyl)-5-(2-fluoro-6-methoxyphenyl)-3-methylpyrrolidin-2-one] | 114 | 9 |  | 
COc1cccc(OC)c1C1CCCC(=O)N1Cc1ccc2c(ccn2C)c1 (stereo not drawn) [Example 241, 6-(2,6-dimethoxyphenyl)-1-((1-methyl-1H-indol-5-yl)methyl)piperidin-2-one] |  |  | 426 | 275
COc1cccc(OC)c1C1CCCC(=O)N1Cc1ccc(OC(F)(F)F)cc1 (stereo not drawn) [Example 156, 6-(2,6-dimethoxyphenyl)-1-(4-(trifluoromethoxy)benzyl)piperidin-2-one] |  |  | 259 | 22
COc1cccc(OC)c1C1CC(C)C(=O)N1Cc1cc2cc(F)ccc2n1C (stereo not drawn) [Example 390, 5-(2,6-dimethoxyphenyl)-1-((5-fluoro-1-methyl-1H-indol-2-yl)methyl)-3-methylpyrrolidin-2-one] | 80 | 142 |  | 
COc1cccc(OC)c1C1CCCC(=O)N1Cc1ccc(OCCF)cc1 (stereo not drawn) [Example 176, 6-(2,6-dimethoxyphenyl)-1-(4-(2-fluoroethoxy)benzyl)piperidin-2-one] |  |  | 327 | 61
COc1ccnc(OC)c1C1CCCC(=O)N1Cc1ccc2oc3ccccc3c2c1 (stereo not drawn) [Example 57, 1-(dibenzo[b,d]furan-2-ylmethyl)-6-(2,4-dimethoxypyridin-3-yl)piperidin-2-one] | 5 | 3 |  | 
COc1cccc(OC)c1C1CCCC(=O)N1Cc1ccc(SC(F)(F)F)cc1 (stereo not drawn) [Example 162, 6-(2,6-dimethoxyphenyl)-1-(4-((trifluoromethyl)thio)benzyl)piperidin-2-one] |  |  | 1310 | 62
COc1cccc(OCC2CC2)c1C1CCCC(=O)N1Cc1ccc(OC(F)(F)F)cc1 (stereo not drawn) [Example 210, 6-(2-(cyclopropylmethoxy)-6-methoxyphenyl)-1-(4-(trifluoromethoxy)benzyl)piperidin-2-one] |  |  | 2550 | 4140
COc1cccc(OC)c1C1CCC(=O)N1Cc1cccc(-c2ccccn2)c1 (stereo not drawn) [Example 119, 5-(2,6-dimethoxyphenyl)-1-(3-(pyridin-2-yl)benzyl)pyrrolidin-2-one] | 57 | 56 |  | 
COc1ccc2c(c1C1CCCC(=O)N1Cc1cccc(-c3csc(C)n3)c1)OCCO2 (stereo not drawn) [Example 443, 6-(6-methoxy-2,3-dihydrobenzo[b][1,4]dioxin-5-yl)-1-(3-(2-methylthiazol-4-yl)benzyl)piperidin-2-one] | 5 | 13 |  | 
COc1cccc(OC)c1C1CC(C)C(=O)N1Cc1ccnc(-n2cccn2)c1 (stereo not drawn) [Example 154, 1-((2-(1H-pyrazol-1-yl)pyridin-4-yl)methyl)-5-(2,6-dimethoxyphenyl)-3-methylpyrrolidin-2-one] | 10 | 204 |  | 

Compound | IC50 (human orexin-1 receptor; compound incubation 120 min) [nM] | IC50 (human orexin-2 receptor; compound incubation 120 min) [nM] | IC50 (human orexin-1 receptor; [1]) [nM] | IC50 (human orexin-2 receptor; [1]) [nM]
COc1cccc(OC)c1C1CCCC(=O)N1Cc1cccc(-n2ccnn2)c1 (stereo not drawn) [Example 46, 1-(3-(1H-1,2,3-triazol-1-yl)benzyl)-6-(2,6-dimethoxyphenyl)piperidin-2-one] | 440 | 239 |  | 
COc1cccc(OC)c1C1CCCC(=O)N1Cc1cccc(Oc2ccccc2)c1 (stereo not drawn) [Example 179, 6-(2,6-dimethoxyphenyl)-1-(3-phenoxybenzyl)piperidin-2-one] |  |  | 225 | 42
O=C1CCCC(c2ccccc2C(F)(F)F)N1Cc1ccc2ccccc2c1 (stereo not drawn) [Example 239, 1-(naphthalen-2-ylmethyl)-6-(2-(trifluoromethyl)phenyl)piperidin-2-one] |  |  | 6420 | 3580
CCc1nc2ccc(OC)c(C3CCCC(=O)N3Cc3cccc(-c4csc(C)n4)c3)c2o1 (stereo not drawn) [Example 442, 6-(2-ethyl-6-methoxybenzo[d]oxazol-7-yl)-1-(3-(2-methylthiazol-4-yl)benzyl)piperidin-2-one] | 10 | 33 |  | 
COc1cccc(OC)c1[C@@H]1C[C@@H](Cl)C(=O)N1Cc1ccc(OC(F)(F)F)cc1 (racemic) [Example 257, rac-(3R*,5S*)-3-chloro-5-(2,6-dimethoxyphenyl)-1-(4-(trifluoromethoxy)benzyl)pyrrolidin-2-one] |  |  | 177 | 563
COc1cccc(OC)c1C1CC(C)C(=O)N1Cc1cnc2ccccc2c1 (stereo not drawn) [Example 347, 5-(2,6-dimethoxyphenyl)-3-methyl-1-(quinolin-3-ylmethyl)pyrrolidin-2-one] | 1400 | 777 |  | 
COc1cccc(C)c1[C@@H]1C[C@@H](O)C(=O)N1Cc1ccc(OC(F)(F)F)cc1 (racemic) [Example 309, rac-(3R*,5S*)-3-hydroxy-5-(2-methoxy-6-methylphenyl)-1-(4-(trifluoromethoxy)benzyl)pyrrolidin-2-one] | 2220 | 887 |  | 
COc1cccc(OC)c1C1CC(C)C(=O)N1Cc1cccc(OCC(F)(F)F)c1 (stereo not drawn) [Example 417, 5-(2,6-dimethoxyphenyl)-3-methyl-1-(3-(2,2,2-trifluoroethoxy)benzyl)pyrrolidin-2-one] | 123 | 110 |  | 
COc1ccc(Cl)c(OC)c1[C@@H]1C[C@H](Cl)C(=O)N1Cc1ccc(OC(F)(F)F)cc1 (racemic) [Example 318, rac-(3S*,5S*)-3-chloro-5-(3-chloro-2,6-dimethoxyphenyl)-1-(4-(trifluoromethoxy)benzyl)pyrrolidin-2-one] | 167 | 444 |  | 
CCOc1cc(F)cc(F)c1[C@@H]1C[C@H](F)C(=O)N1Cc1ccc(OC(F)(F)F)cc1 (racemic) [Example 438, rac-(3S*,5S*)-5-(2-ethoxy-4,6-difluorophenyl)-3-fluoro-1-(4-(trifluoromethoxy)benzyl)pyrrolidin-2-one] | 921 | 37 |  | 
COc1cccc(C)c1[C@@H]1C[C@H](Cl)C(=O)N1Cc1ccc(OC(F)(F)F)cc1 (racemic) [Example 326, rac-(3S*,5S*)-3-chloro-5-(2-methoxy-6-methylphenyl)-1-(4-(trifluoromethoxy)benzyl)pyrrolidin-2-one] | 1520 | 126 |  | 
COc1cccc(OC)c1C1CC(C)C(=O)N1Cc1ccc(OC(F)F)cc1 (stereo not drawn) [Example 402, 1-(4-(difluoromethoxy)benzyl)-5-(2,6-dimethoxyphenyl)-3-methylpyrrolidin-2-one] | 271 | 621 |  | 
COc1cccc(F)c1C1CC(C)C(=O)N1Cc1cnc2ccccc2c1 (stereo not drawn) [Example 358, 5-(2-fluoro-6-methoxyphenyl)-3-methyl-1-(quinolin-3-ylmethyl)pyrrolidin-2-one] | 959 | 1260 |  | 
COc1cncc(OC)c1C1CCCC(=O)N1Cc1cccc(-n2cccn2)n1 (stereo not drawn) [Example 66, 1-((6-(1H-pyrazol-1-yl)pyridin-2-yl)methyl)-6-(3,5-dimethoxypyridin-4-yl)piperidin-2-one] | 3100 | 3700 |  | 
COc1cccc(OC)c1C1CCCC(=O)N1Cc1cccc(-c2ncccn2)c1 (stereo not drawn) [Example 29, 6-(2,6-dimethoxyphenyl)-1-(3-(pyrimidin-2-yl)benzyl)piperidin-2-one] | 14 | 28 |  | 
COc1cccc(OC)c1C1CC(C)C(=O)N1Cc1cccc(-c2noc(C)n2)c1 (stereo not drawn) [Example 143, 5-(2,6-dimethoxyphenyl)-3-methyl-1-(3-(5-methyl-1,2,4-oxadiazol-3-yl)benzyl)pyrrolidin-2-one] | 27 | 46 |  | 
COc1cccc(OC)c1C1CCCCC(=O)N1Cc1cccc(-c2cncs2)c1 (stereo not drawn) [Example 99, 7-(2,6-dimethoxyphenyl)-1-(3-(thiazol-5-yl)benzyl)azepan-2-one] | 7 | 34 |  | 
COc1cccc(OC)c1C1CC(F)(F)C(=O)N1Cc1ccc2oc3ccccc3c2c1 (stereo not drawn) [Example 353, 1-(dibenzo[b,d]furan-2-ylmethyl)-5-(2,6-dimethoxyphenyl)-3,3-difluoropyrrolidin-2-one] | 4 | 19 |  | 
